10 compounds from PMC12671136, “Antimicrobial peptides disrupting the bacterial membrane reduce Salmonella colonization in chickens” (Microbiology Spectrum, 2025) can be followed below.

What all share (format): cell-based
Assay [1] relates to Salmonella Typhimurium (ST). To be noted: for MIC: murium (ST, 12 h). How it is done: (§1) The inhibitory effect of the peptides was assessed as described previously ([23]). ST was grown overnight and adjusted to 5 × 10^5 CFU/ml, and 100 µL of this measured concentration was placed into the wells of a 96-well plate. Peptides P1–P6 were added to the well at 12 mM concentration, and the plate was incubated in a TECAN Sunrise^TM absorbance microplate reader at 37°C, with kinetic absorbance measurements taken every 30 min for 12 h. The growth inhibitory activity was calculated with the formula (OD600 DMSO-treated well − OD600 peptide-treated well)/OD600 DMSO-treated well × 100%. Wells treated with DMSO and containing Salmonella, as well as sterile media wells without Salmonella, were used as controls. At least two independent experiments were conducted.
(§2) MIC was determined as the peptide concentration at which no increase in growth (no increase in OD) was observed, indicating complete inhibition of ST growth. Additionally, to test the efficacy of peptides against another serovar, the assay was conducted using SE, with peptides added at 15 mM and 18 mM concentrations. Following incubation (37°C, 12 h), cultures were plated on the LB agar plate to confirm the bactericidal effect. At least two independent experiments were conducted.
(§3) To analyze the perceived efficacy of arginine and lysine substitutes reported in previous studies ([36], [37]), specific amino acid residues in P1 and P2 were replaced with lysine or arginine and tested if the substitutions enhanced anti-Salmonella (ST and SE) activity. The MICs of the arginine or lysine substituted peptides ([…], […], […], KDENK, PDEKK, KDEKK) were determined as described above. At least two independent experiments were conducted.

The subject of assay [2] is Salmonella Enteritidis (SE). The conditions noted are these: 12 h. The procedure:
as §1, §2, §3

For assay [3], the system named is Salmonella Enteritidis (SE). How it is done:
(§4) P1, P2, and P4 were heated for 6 min at 86°C ([21]) or treated with protease proteinase K (200 µg/ml) at 50°C for 30 min ([26]). Afterward, the treated and/or heated peptides at their respective MICs were evaluated in the inhibition assay with Salmonella. The protocol from above using the TECAN microplate reader was followed with the same controls.

For assay [4], the system named is Salmonella Typhimurium (ST). To be noted: murium (ST). How it is done: as §4
Assay [5] concerns Salmonella Brenderup. The procedure:
(§5) To further test the spectrum of the peptides’ anti-Salmonella capabilities, eight additional Salmonella serovars commonly implicated in foodborne illness (S. Anatum, S. Albany, S. Brenderup, S. Javiana, S. Heidelberg, S. Muenchen, S. Newport, S. Saintpaul) were investigated (Table S1). P1, P2, and P4 (selected based on dose-response assay results) were added to the assay at their MICs to determine their effect on different serovars. Inhibition was determined using the criteria described above.

The subject of assay [6] is Salmonella Albany. How it is done: as §5
Assay [7] relates to Salmonella Newport. The procedure: as §5
Assay [8] has as its system Salmonella Anatum. The procedure: as §5
The test system of assay [9] is Salmonella Javiana. How it is done: as §5
The test system of assay [10] is Salmonella Heidelberg. How it is done:
as §5

Assay [11] relates to Salmonella Muenchen. How it is done: as §5
The subject of assay [12] is Salmonella Saintpaul. The procedure:
as §5

The structures appear in SMILES notation. Converted amounts (≈) assume the structure as drawn. Peptide text beside a SMILES is read from it.

For `CC(C)[C@H](N)C(=O)N[C@@H](Cc1c[nH]cn1)C(=O)N[C@H](C(=O)N[C@@H](C)C(=O)N1CCC[C@H]1C(=O)N[C@@H](CCCCN)C(=O)O)[C@@H](C)O` [Peptide P3] (H-VHTAPK-OH; N-terminus and C-terminus assumed), in assay [1] (peptide 6, 12, 15 and 18 mM, 12 h, 37°C), the “Complete inhibition of ST growth” value is given as “Neither P3 nor P4 completely inhibited ST”.

For `N=C(N)NCCC[C@H](NC(=O)[C@H](CCCNC(=N)N)NC(=O)[C@H](CCC(=O)O)NC(=O)[C@H](CCCNC(=N)N)NC(=O)[C@H](CCCNC(=N)N)NC(=O)[C@H](CCCNC(=N)N)NC(=O)[C@@H]1CCCN1C(=O)[C@@H](N)CC(N)=O)C(=O)O` (H-NPRRRERR-OH), the MIC in assay [2] is more than 18 mM; in assay [1] it was 15 mM (≈ 17.1 mg/mL).

For the compound `N=C(N)NCCC[C@H](NC(=O)[C@H](CCCNC(=N)N)NC(=O)[C@H](CCC(=O)O)NC(=O)[C@H](CCC(N)=O)NC(=O)[C@H](CCCNC(=N)N)NC(=O)[C@H](CO)NC(=O)[C@@H]1CCCN1C(=O)[C@@H](N)CC(N)=O)C(=O)O` [Peptide P1] (H-NPSRQERR-OH), in assay [2], the “MIC (mM) against SE, No treatment” value was determined as 18 mM (≈ 18.8 mg/mL). In addition, in [3], the “MIC (mM) against SE, Heat treatment” value was 18 mM (≈ 18.8 mg/mL) and the “MIC (mM) against SE, Protease treatment” value amounted to 18 mM (≈ 18.8 mg/mL). Moreover, in assay [4], the “MIC (mM) against ST, Heat treatment” value came to 18 mM (≈ 18.8 mg/mL) and the “MIC (mM) against ST, Protease treatment” value is reported as 18 mM (≈ 18.8 mg/mL). Also, in assay [5], the “Efficacy against Salmonella Brenderup (concentration inhibiting completely, MIC)” value came to 18 mM. Moreover, in assay [6], the “Efficacy against Salmonella Albany (concentration inhibiting completely, MIC)” value was found to be 18 mM. Also, the “Efficacy against Salmonella Newport (concentration inhibiting completely, MIC)” value in assay [7] is reported as 18 mM. The “Efficacy against Salmonella Anatum (concentration inhibiting completely, MIC)” value in assay [8] turned out to be 18 mM. In addition, the “Efficacy against Salmonella Javiana (concentration inhibiting completely, MIC)” value in [9] was 18 mM. In [10], the “Efficacy against Salmonella Heidelberg (concentration inhibiting completely, MIC)” value worked out at 18 mM. Besides, the “Efficacy against Salmonella Muenchen (concentration inhibiting completely, MIC)” value in assay [11] was determined as 18 mM. For the same compound, the “Efficacy against Salmonella Saintpaul (concentration inhibiting completely, MIC)” value in assay [12] is 18 mM.

`NCCCC[C@H](NC(=O)[C@H](CCCCN)NC(=O)[C@H](CCC(=O)O)NC(=O)[C@H](CC(=O)O)NC(=O)[C@@H](N)CCCCN)C(=O)O` [KDEKK] (H-KDEKK-OH): the minimum inhibitory concentration (MIC) in [2] and in [1] was 15 mM (≈ 9.7 mg/mL) each time.

On to `N=C(N)NCCC[C@H](NC(=O)[C@H](CCCNC(=N)N)NC(=O)[C@H](CCC(=O)O)NC(=O)[C@H](CCC(N)=O)NC(=O)[C@H](CCCNC(=N)N)NC(=O)[C@H](CCCNC(=N)N)NC(=O)[C@@H]1CCCN1C(=O)[C@@H](N)CC(N)=O)C(=O)O` (H-NPRRQERR-OH), for which the minimum inhibitory concentration (MIC) was 18 mM (≈ 20 mg/mL) in [2] and 15 mM (≈ 16.7 mg/mL) in assay [1].

Take `NCCCC[C@H](NC(=O)[C@H](CC(N)=O)NC(=O)[C@H](CCC(=O)O)NC(=O)[C@H](CC(=O)O)NC(=O)[C@@H](N)CCCCN)C(=O)O` [KDENK] (H-KDENK-OH): the minimum inhibitory concentration (MIC) in assay [2] and in assay [1] was 12 mM (≈ 7.59 mg/mL) in each case.

As to `CSCC[C@H](N)C(=O)N[C@@H](CC(C)C)C(=O)N[C@@H](CC(N)=O)C(=O)N[C@@H](CCC(=O)O)C(=O)N[C@@H](CCCNC(=N)N)C(=O)N[C@H](C(=O)N[C@@H](CCCCN)C(=O)O)C(C)C` [Peptide P4] (H-MLNERVK-OH), the “MIC (mM) against SE, No treatment” value in assay [2] is recorded as 18 mM (≈ 16 mg/mL). In [3], the “MIC (mM) against SE, Heat treatment” value came to 18 mM (≈ 16 mg/mL) and the “MIC (mM) against SE, Protease treatment” value is on record as 18 mM (≈ 16 mg/mL). Moreover, in assay [4], the “MIC (mM) against ST, Heat treatment” value was determined as 18 mM (≈ 16 mg/mL) and the “MIC (mM) against ST, Protease treatment” value is listed as 18 mM (≈ 16 mg/mL). Further, in [5], the “Efficacy against Salmonella Brenderup (concentration inhibiting completely, MIC)” value was 18 mM. Further, in assay [6], the “Efficacy against Salmonella Albany (concentration inhibiting completely, MIC)” value is listed as 18 mM. Also, the “Efficacy against Salmonella Newport (concentration inhibiting completely, MIC)” value in assay [7] is 18 mM. Besides, in assay [8], the “Efficacy against Salmonella Anatum (concentration inhibiting completely, MIC)” value turned out to be 18 mM. Moreover, the “Efficacy against Salmonella Javiana (concentration inhibiting completely, MIC)” value in [9] worked out at 18 mM. In assay [10], the “Efficacy against Salmonella Heidelberg (concentration inhibiting completely, MIC)” value was 18 mM. Besides, the “Efficacy against Salmonella Muenchen (concentration inhibiting completely, MIC)” value in [11] was determined as 18 mM. The “Efficacy against Salmonella Saintpaul (concentration inhibiting completely, MIC)” value in assay [12] came out at 18 mM.

As to `NCCCC[C@H](NC(=O)[C@H](CC(N)=O)NC(=O)[C@H](CCC(=O)O)NC(=O)[C@H](CC(=O)O)NC(=O)[C@@H]1CCCN1)C(=O)O` [Peptide P2] (H-PDENK-OH), in [2], the “MIC (mM) against SE, No treatment” value was determined as 15 mM (≈ 9.02 mg/mL). Further, in assay [3], the “MIC (mM) against SE, Heat treatment” value was determined as 15 mM (≈ 9.02 mg/mL) and the “MIC (mM) against SE, Protease treatment” value amounted to 15 mM (≈ 9.02 mg/mL). Moreover, in assay [4], the “MIC (mM) against ST, Heat treatment” value turned out to be 15 mM (≈ 9.02 mg/mL) and the “MIC (mM) against ST, Protease treatment” value was 15 mM (≈ 9.02 mg/mL). The “Efficacy against Salmonella Brenderup (concentration inhibiting completely, MIC)” value in assay [5] is on record as 15 mM. Moreover, the “Efficacy against Salmonella Albany (concentration inhibiting completely, MIC)” value in assay [6] came out at 15 mM. In addition, the “Efficacy against Salmonella Newport (concentration inhibiting completely, MIC)” value in assay [7] came to 15 mM. The “Efficacy against Salmonella Anatum (concentration inhibiting completely, MIC)” value in assay [8] was 15 mM. In assay [9], the “Efficacy against Salmonella Javiana (concentration inhibiting completely, MIC)” value was 15 mM. Also, the “Efficacy against Salmonella Heidelberg (concentration inhibiting completely, MIC)” value in [10] amounted to 15 mM. The “Efficacy against Salmonella Muenchen (concentration inhibiting completely, MIC)” value in assay [11] is on record as 15 mM. For the same compound, the “Efficacy against Salmonella Saintpaul (concentration inhibiting completely, MIC)” value in assay [12] came out at 15 mM.

In the case of `N=C(N)NCCC[C@H](NC(=O)[C@H](CCCNC(=N)N)NC(=O)[C@H](CCC(=O)O)NC(=O)[C@H](CCCNC(=N)N)NC(=O)[C@H](CCCNC(=N)N)NC(=O)[C@H](CO)NC(=O)[C@@H]1CCCN1C(=O)[C@@H](N)CC(N)=O)C(=O)O` (H-NPSRRERR-OH), the MIC in assay [2] and in assay [1] was more than 18 mM each time.

Consider `NCCCC[C@H](NC(=O)[C@H](CCCCN)NC(=O)[C@H](CCC(=O)O)NC(=O)[C@H](CC(=O)O)NC(=O)[C@@H]1CCCN1)C(=O)O` [PDEKK] (H-PDEKK-OH), for which the MIC in assay [1] was 15 mM (≈ 9.24 mg/mL).

For orientation: MIC means the lowest concentration found to suppress growth. Read a high MIC as weaker potency.
